Columns and labels:
[1] = target: T1, human recombinant VNN1 enzyme (Homo sapiens, UniProt O95497); assay: Inhibitory activity against human recombinant VNN1 enzyme in vitro with fluorescent probe PA-AFC; format: biochemical; settings: human recombinant VNN1 30 ng/ml, probe PA-AFC 20 μM, 37°C, 30 min + 30 min
T1 sequence (O95497 22-513): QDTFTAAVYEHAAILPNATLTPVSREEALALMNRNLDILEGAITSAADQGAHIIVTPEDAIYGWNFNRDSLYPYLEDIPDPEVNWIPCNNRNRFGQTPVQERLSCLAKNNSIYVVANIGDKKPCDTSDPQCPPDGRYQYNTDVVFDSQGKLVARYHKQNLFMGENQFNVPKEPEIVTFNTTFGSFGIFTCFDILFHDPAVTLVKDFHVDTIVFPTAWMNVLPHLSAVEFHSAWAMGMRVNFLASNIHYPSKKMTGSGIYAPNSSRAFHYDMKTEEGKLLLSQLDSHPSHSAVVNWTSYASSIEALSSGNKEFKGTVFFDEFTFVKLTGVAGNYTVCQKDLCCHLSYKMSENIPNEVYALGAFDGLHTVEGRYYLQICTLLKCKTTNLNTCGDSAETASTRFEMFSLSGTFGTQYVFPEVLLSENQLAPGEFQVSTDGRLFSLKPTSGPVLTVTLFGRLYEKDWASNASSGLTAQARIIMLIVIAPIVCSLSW
Description: This study was used human recombinant VNN1 enzyme and fluorescent probe PA-AFC to determine the IC50 value of inhibitors.
Dilute the lead compound and each inhibitor to be tested with buffer to, for example, 400, 200, 100, 50, 25, 12.50, 6.25, 3.13, and 1.56 μM, 781 nM, 391 nM The gradient concentration of the solution. Prepare the human recombinant VNN1 enzyme solution at a concentration of 30 ng/ml. Prepare the fluorescent probe PA-AFC solution with a concentration of 20 μM.
Add 50 μl of gradient concentration of the inhibitor to be tested to each well of the black 96-well plate, and then continue to add 50 μl of the newly prepared human recombinant VNN1 enzyme solution to each well. Among them, the control group and the blank group were replaced with the same volume of buffer. After the solution is mixed, place the black 96-well plate on a shaker at 37°C for 30 min. Continue to add 100 μl of the prepared fluorescent probe solution to each well of the black 96-well plate. After mixing, place the black 96-well plate on a shaker at 37°C and incubate for 30 min. Take the black 96-well plate out of the shaker and place it in a POLARstar Omega microplate reader. Use a 420 nm filter for the excitation light and a 510 nm filter for the emission light. Record the fluorescence intensity data at 510 nm. Through GraphpadPrism mapping, the IC50 value of each inhibitor to be tested was obtained.

Vanin-1 enzyme [2] = target: T2, Vanin-1 enzyme (Homo sapiens, UniProt O95497); assay: Inhibition of Vanin-1 enzyme at the cellular level in ES-2-Fluc cells with bioluminescent probe PA-AL; format: cell-based; settings: 30 min incubation with inhibitor, probe PA-AL 20 μM
T2 construct: endogenous in cells; host or cells: ES-2-Fluc (human ovarian cancer cells expressing firefly luciferase)
T2 sequence (O95497 22-513): T1 sequence (O95497 22-513)
Description: This study explores the inhibition of Vanin-1 enzyme at the cellular level using firefly luciferase labeled human ovarian cancer cells (ES-2-Fluc) and the bioluminescent probe PA-AL.
Take a black 96-well plate with a transparent bottom, dilute the cells to a cell suspension with a concentration of 4 × 10^5 cells/ml, add 100 μl to each well to reach about 40,000 cells in each well, and incubate at 37°C for 12 h. Dilute the lead compound and each inhibitor to be tested to the final concentration of 200, 100, 50, 25, 12.50, 6.25, 3.13, 1.56, and 0.78 μM, and add 100 μl to each well. After mixing, transfer to a shaker at 37°C and incubate the cells with the inhibitor for 30 min. Prepare bioluminescent probe PA-AL solution with a concentration of 20 μM. Immediately after adding, put it into in vivo imaging for bioluminescence imaging. The bioluminescence intensity value of each hole was analyzed by the software of the living body imager, and the exposure time was 1 min. Graphpad Prism software is used to draw the IC50 value of each inhibitor to be tested.

vanin-1 = system: vanin-1; parameters: method as in Jansen et al., 2013; settings: ref Jansen et al., 2013; cited from earlier work
vanin-1 enzyme [3] = target: T3, vanin-1 enzyme (Mus musculus, UniProt Q9Z0K8); assay: Inhibition of vanin-1 in transgenic mice in vivo, bioluminescence imaging with probe PA-AL; parameters: species or system FVB-luc + mice; settings: gavage, lead compound 25 mg/kg, compound a 50 mg/kg, PA-AL i.p. 1.5 h later
T3 construct: from tissue; host or cells: whole living FVB-luc+ transgenic mice
T3 sequence (Q9Z0K8 24-512): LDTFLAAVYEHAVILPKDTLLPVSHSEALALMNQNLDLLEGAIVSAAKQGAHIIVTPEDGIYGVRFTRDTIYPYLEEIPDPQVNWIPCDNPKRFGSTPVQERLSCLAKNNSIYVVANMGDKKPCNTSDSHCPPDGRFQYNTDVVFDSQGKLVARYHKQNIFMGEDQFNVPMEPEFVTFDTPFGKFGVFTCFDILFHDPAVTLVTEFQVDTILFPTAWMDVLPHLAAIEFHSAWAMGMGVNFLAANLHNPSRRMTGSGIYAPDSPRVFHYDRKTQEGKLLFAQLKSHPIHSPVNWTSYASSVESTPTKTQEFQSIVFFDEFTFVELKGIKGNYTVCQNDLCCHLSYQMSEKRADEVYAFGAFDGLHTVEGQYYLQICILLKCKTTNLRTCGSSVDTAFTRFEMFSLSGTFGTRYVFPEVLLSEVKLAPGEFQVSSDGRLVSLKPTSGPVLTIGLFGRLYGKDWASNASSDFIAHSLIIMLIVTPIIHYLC
Description: We divided FVB-luc + mice into three groups: • (1) Control group: gavage lead compound, the dose is 25 mg/kg, the gavage volume is 200 μl; • (2) Experimental group: gavage compound a, the dose is 50 mg/kg, the gavage volume is 200 μl; • (3) Blank group: Administer normal saline, the volume of intragastric administration is 200 μl.
After intragastric administration, mice were fed routinely for 1.5 h, and then mice in each group were anesthetized with 4% chloral hydrate solution and injected intraperitoneally with physiological saline solution of bioluminescent probe PA-AL (1 mM, 200 μl). In 55 min, the bioluminescence imaging of the whole body of each group of mice was measured every 5 min, and then the bioluminescence intensity was obtained by analyzing the images with the software of the in vivo imager.

[4] = system: TNBS-induced mouse colitis model; assay: TNBS-induced mouse colitis model; format: in vivo, C57BL/6J mice; settings: TNBS colitis mice; lead compound 25 mg/kg, compound a 50 mg/kg once a day, 8 days; TNBS model group 10.0 ± 1.63
Description: The dose of TNBS used in this experiment is 2.0 mg/50% alcohol enema, each with a volume of 100 μl. The preparation method is 40 μl of 5% TNBS (w/v) aqueous solution, 50 μl of absolute ethanol, and 10 μl of distilled water. well mixed.
The study bred C57BL/6J mice adaptively with ordinary diet for 1 week, in an ordinary clean environment, normal light and free drinking water. The mice were randomly divided into 3 groups and numbered, fasted without water for 24 h before modeling. After weighing the mouse, use isoflurane anesthesia, insert a rubber hose with a diameter of about 0.2–0.3 cm into the mouse 3.5 cm from the anus, and slowly push 100 μl of the 2.0 mg TNBS/50% alcohol mixture solution through the hose Enter the colon, slowly pull out the plastic tube after the administration, pinch the anus with your hand, and invert it for 1 min, so that the model agent can fully penetrate the intestinal cavity of the mouse. Then put them back into the breeding cage to keep lying down, wait for the mice to wake up naturally, and create a model together. The mice in the control group were given 200 μl of lead compound solution (25 mg/kg) once a day, the mice in the experimental group were given 200 μl of compound 1c solution (50 mg/kg) once a day, and the mice in the model group were given physiological salt once a day 200 μl of aqueous solution. […]

O=C(c1ccc(NCc2cnccn2)cn1)N1CCC2(CCOCC2)C1 [g, (5-((pyrazin-2-ylmethyl)amino)pyridin-2-yl)(8-oxa-2-azaspiro[4.5]decan-2-yl)methanone]
IC50 [1]: 51.5 ± 1.65 µM
IC50 (Vanin-1 enzyme [2]): 39.8 ± 0.91 µM
melting point: 123.6 to 124.1 °C

CC(C)(CO)C(O)C(=O)NCCC(=O)Nc1ccc2c(C(F)(F)F)cc(=O)oc2c1 (centres unmarked)
melting point: 92.4 to 93.6 °C

O=C(c1ccc(NCc2cccnc2)cc1)N1CC2(CCOCC2)C1 [b, (4-((pyridin-3-ylmethyl)amino)phenyl)(7-oxa-2-azaspiro[3.5]nonan-2-yl)methanone]
IC50 [1]: 26.2 ± 0.56 µM
IC50 (Vanin-1 enzyme [2]): 12.3 ± 1.28 µM
melting point: 126.1 to 126.5 °C

O=C(c1ccc(NCc2cnccn2)cc1)N1CCC2(CCOCC2)C1 [c, (4-((pyrazin-2-ylmethyl)amino)phenyl)(8-oxa-2-azaspiro[4.5]decan-2-yl)methanone]
IC50 [1]: 30.33 ± 0.11 µM
IC50 (Vanin-1 enzyme [2]): 16.5 ± 1.92 µM
melting point: 173.4 to 173.8 °C

CC(C)(CO)[C@@H](O)C(=O)NCCC(=O)Cc1ccccc1 [RR6]
IC50 (vanin-1): 0.54 µM

O=C(c1ccc(NCc2cccnc2)cc1)N1CCC2(CCOCC2)C1 [a, (4-((pyridin-3-ylmethyl)amino)phenyl)(8-oxa-2-azaspiro[4.5]decan-2-yl)methanone]
IC50 [1]: 20.2 ± 1.32 µM
IC50 (Vanin-1 enzyme [2]): 9.08 ± 0.57 µM
bioluminescence intensity at the peak relative to the blank group (vanin-1 enzyme [3]; 30 min after probe injection): about one-half
bioluminescence intensity of transgenic mice at the peak (vanin-1 enzyme [3]; about 30 min after probe injection): significantly reduced
DAI score [4]: 6.7 ± 0.95
melting point: 113.2 to 114.7 °C

O=C(c1ccc(NCc2cccnc2)cn1)N1CCC2(CCOCC2)C1 [e, (5-((pyridin-3-ylmethyl)amino)pyridin-2-yl)(8-oxa-2-azaspiro[4.5]decan-2-yl)methanone]
IC50 [1]: 43.7 ± 1.07 µM
IC50 (Vanin-1 enzyme [2]): 35.8 ± 2.15 µM
melting point: 176.5 to 177.2 °C

COc1cc(C(=O)N2CC3(CCOCC3)C2)ccc1NCc1cccnc1 [j, (3-methoxy-4-((pyridin-3-ylmethyl)amino)phenyl)(7-oxa-2-azaspiro[3.5]nonan-2-yl)methanone]
IC50 [1]: 138.3 ± 0.68 µM
IC50 (Vanin-1 enzyme [2]): 80.6 ± 6.21 µM
melting point: 136.4 to 136.9 °C

O=C(c1ccc(NCc2cnccn2)cn1)N1CC2(CCOCC2)C1 [h, (5-((pyrazin-2-ylmethyl)amino)pyridin-2-yl)(7-oxa-2-azaspiro[3.5]nonan-2-yl)methanone]
IC50 [1]: 84.6 ± 2.5 µM
IC50 (Vanin-1 enzyme [2]): 59.6 ± 5.27 µM
melting point: 104.6 to 105 °C

O=C(c1ccc(NCc2cccnc2)cn1)N1CC2(CCOCC2)C1 [f, (5-((pyridin-3-ylmethyl)amino)pyridin-2-yl)(7-oxa-2-azaspiro[3.5]nonan-2-yl)methanone]
IC50 [1]: 46.2 ± 1.27 µM
IC50 (Vanin-1 enzyme [2]): 22 ± 2.66 µM
melting point: 202 to 202.3 °C

O=C(c1ccc(NCc2cnccn2)cc1)N1CC2(CCOCC2)C1 [d, (4-((pyrazin-2-ylmethyl)amino)phenyl)(7-oxa-2-azaspiro[3.5]nonan-2-yl)methanone]
IC50 [1]: 28.5 ± 0.35 µM
IC50 (Vanin-1 enzyme [2]): 15.3 ± 0.75 µM
melting point: 191.6 to 191.9 °C

COc1cc(C(=O)N2CCC3(CCOCC3)C2)ccc1NCc1cccnc1 [i, (3-methoxy-4-((pyridin-3-ylmethyl)amino)phenyl)(8-oxa-2-azaspiro[4.5]decan-2-yl)methanone]
IC50 [1]: 115 ± 13 µM
IC50 (Vanin-1 enzyme [2]): 93.7 ± 8.08 µM
melting point: 128.2 to 129.6 °C

From publication PMC8831383, “Visualization-Based Discovery of Vanin-1 Inhibitors for Colitis” (Frontiers in Chemistry, 2022)
